Experimental data from article PMC3042617, “Identification of Two Novel HLA-A*0201-Restricted CTL Epitopes Derived from MAGE-A4” (Clinical and Developmental Immunology, 2011).

Legend:
[1] = biological target: HLA-A*0201 molecule (Homo sapiens, UniProt P04439, D140Y/D185E/D98H/E176V/E277Q/G131W/G231S/I119V/I121R/I166T/I218V/L300P/L318F/N151K/N90K/P208A/P217A/Q86G/Q94H/R138H/R169H/T345S); assay: T2-cell-peptide binding test (affinity of peptide for HLA-A*0201); conditions: various peptide concentrations, 3 μg/mL human β2m, serum-free RPMI 1640, 37°C, 16 h, flow cytometry, three replicates, repeated three times
Method: The affinity of peptides for HLA-A*0201 was measured as described previously. Briefly, T2 cells were incubated with various concentrations of each peptide and 3 μg/mL human β2m in serum-free RPMI 1640 medium at 37°C for 16 h. Then, the cells were washed and stained with antiHLA-A2 mAb and FITC-labeled goat anti-mouse IgG. The expression of HLA-A*0201 on T2 cells was determined with FACS Calibur flow cytometer (Becton Dickinson, USA). For each peptide concentration, the percent mean fluorescence index (% MFI) increase of HLA-A*0201 molecule was calculated as follows: % MFI increase = [(MFI with the given peptide − MFI without peptide)/(MFI without peptide)] × 100.
Figure 1 Binding affinity of peptides for HLA-A*0201 molecule. T2 cells were incubated with indicated concentrations of the peptides in serum-free RPMI 1640 medium supplied with 3 μg/mL human β2m at 37°C for 16 h. And then the cells were stained with anti-HLA-A2 mAb and FITC-labeled goat antimouse IgG. The expression of HLA-A*0201 on T2 cells was determined with FACS Calibur flow cytometer. The peptides HBcAg18–27 and OVA257–264 were taken as positive control and negative control, respectively. Each sample was measured in three replicates and the experiment was repeated three times.

[2] = test system: peptide/HLA-A*0201 complex; assay: Peptide/HLA-A*0201 complex stability on T2 cells; assay type: binding, human; conditions: for % MFI increase at indicated time point (h): 0 / DC50 (half-time of the peptide/HLA-A*0201 complex): T2 cells, 37°C; for % MFI increase at indicated time point (h): 0: 100 μM peptide overnight, 100 ng/mL human β2m, Brefeldin A 10 μg/mL 1 h, then 0 h at 37°C, anti-HLA-A2 mAb staining; for DC50 (half-time of the peptide/HLA-A*0201 complex): 100 μM peptide, time points 0-8 h; for % MFI increase at indicated time point (h): 2 / % MFI increase at indicated time point (h): 4 / % MFI increase at indicated time point (h): 6 / % MFI increase at indicated time point (h): 8: as at 0 h; for % MFI increase at indicated time point (h): 2: then 2 h at 37°C after Brefeldin A; for % MFI increase at indicated time point (h): 4: then 4 h at 37°C after Brefeldin A; for % MFI increase at indicated time point (h): 6: then 6 h at 37°C after Brefeldin A; for % MFI increase at indicated time point (h): 8: then 8 h at 37°C after Brefeldin A
Method: As previously described, T2 cells (10^6/mL) were incubated overnight with 100 μM of each peptide in serum-free RPMI 1640 medium supplemented with 100 ng/mL human β2m at 37°C. Then, they were washed to remove free peptides and incubated with 10 μg/mL of Brefeldin A (Sigma-Aldrich, USA) for 1 h to block newly synthesized HLA-A*0201 molecules to be expressed on cell surface, washed and incubated at 37°C for 0, 2, 4, 6, or 8 h. Subsequently, the cells were stained with the anti-HLA-A2 mAb to evaluate the expression of HLA-A*0201 molecules.

[3] = test system: LB1751-MEL cells; assay: Cytotoxicity (LDH release) of peptide-stimulated human PBMCs against LB1751-MEL; assay type: cell-based; conditions: PBMCs of healthy HLA-A*0201 donors, E/T 50/1, 25/1, 12.5/1, 4 h
Method: (§1) PBMCs were isolated from the buffy coat of heparinized whole blood samples of healthy HLA-A*0201 donors by density gradient centrifugation on the Ficoll-Paque PREMIUM (GE Healthcare Bio-Sciences AB, Uppsala, Sweden). The effector lymphocytes and dendritic cells (DCs) were prepared by our published method. All donors signed written, informed consent to provide whole blood samples used in the study. Approval of the study was obtained from the relevant ethical committees and was in accordance with the Declaration of Helsinki.
(§2) Three to five days after the final stimulation, the cytotoxic activity of the effector cells was evaluated by a lactate dehydrogenase release assay using Cytotox 96 Non-Radioactive Cytotoxicity Assay kit (Promega, USA). In brief, 1×10^4 target cells (LB1751-MEL, MCF-7 or MCF-7A4) in 50 μL RPMI 1640 containing 5% fetal calf serum (FCS) was placed in the wells of a 96-well round-bottom plate, then 50 μL of various concentrations of effector cells was added at different effector to target (E/T) ratios (50/1, 25/1, and 12.5/1). After 4 h incubation at 37°C, the supernatant was collected to assay lactate dehydrogenase (LDH) release by OD490 measurement according to the manufacturer's instructions. Experiments were performed in triplicates and the percentage of lysis was calculated as % Lysis = [(experimental LDH release − effector spontaneous LDH release − target spontaneous LDH release)/(target maximum LDH release − target spontaneous LDH release)] × 100.
Figure 2 Induction of peptide-specific CTLs from human PBMCs. PBMCs from healthy HLA-A*0201 donors were first stimulated with peptide-pulsed autologous DCs and then restimulated with peptide-pulsed autologous PBMCs. After three to five days of the final stimulation, the stimulated PBMCs were used as effector cells to detect their cytotoxic activity against tumor cells at the indicated E/T ratios in a cytotoxicity assay. The irrelevant peptide HBcAg18–27 was taken as negative control. Each sample was measured in three replicates and the experiment was repeated three times. […] (c) P1- and P3-stimulated PBMCs mediated lysis of MCF-7A4 cells. (d) P1- and P3-stimulated PBMCs mediated lysis of MCF-7 cells.

[4] = test system: MCF-7A4 cells; assay: Cytotoxicity (LDH release) of peptide-stimulated human PBMCs against MCF-7A4; assay type: cell-based; conditions: 4 h
Description: To establish a cell line expressing both HLA-A*0201 and MAGE-A4, MCF-7 cells were transfected with plasmid pCI-MAGEA4 using Lipofectamine 2000 (Invitrogen, USA) and then selected with G418. The expression of MAGE-A4 in the established cell line (designated MCF-7A4) was confirmed by reverse transcription-PCR and western blotting.
as §1, with “Approval of the study was obtained from the relevant ethical committees and was in accordance with the Declaration of Helsinki.” left out
Three to five days after the final stimulation, the cytotoxic activity of the effector cells was evaluated by a lactate dehydrogenase release assay using Cytotox 96 Non-Radioactive Cytotoxicity Assay kit (Promega, USA). […] Experiments were performed in triplicates and the percentage of lysis was calculated as % Lysis = [(experimental LDH release − effector spontaneous LDH release − target spontaneous LDH release)/(target maximum LDH release − target spontaneous LDH release)] × 100.
Figure 2 Induction of peptide-specific CTLs from human PBMCs. […] Each sample was measured in three replicates and the experiment was repeated three times. […]

[5] = test system: LB1751-MEL cells; assay: In vivo induction of peptide-specific CTLs in HLA-A*0201/K^b transgenic mice; conditions: 100 μg peptide in IFA once, splenocytes after 10 days, restimulated in vitro 5 days with peptide and rmIL-2; LDH release
Method: as §2
HLA-A*0201/K^b mice were immunized with 100 μg of various peptides prepared in IFA or IFA emulsion without peptide as a control. After 10 days, mice were sacrificed and splenocytes were cultured for 5 days with 10 units/mL recombinant murine interleukin-2 (rmIL-2) and […]. And then, effector cells were counted and tested for cytotoxic activity in a cytotoxicity assay.
Figure 3 In vivo induction of peptide-specific CTLs. […]

Binding affinity for HLA-A*0201 molecule (increase of HLA-A*0201 expression on T2 cells) [1]	DC50 (half-time of the peptide/HLA-A*0201 complex) [2]	Substance	% MFI increase at indicated time point (h): 0 [2]	% MFI increase at indicated time point (h): 2 [2]	% MFI increase at indicated time point (h): 4 [2]	% MFI increase at indicated time point (h): 6 [2]	% MFI increase at indicated time point (h): 8 [2]	Lysis of LB1751-MEL target cells by peptide-stimulated PBMCs [3]	Lysis of MCF-7A4 cells (HLA-A*0201 and MAGE-A4 expressing) by peptide-primed effector cells [4]	Lysis of LB1751-MEL target cells by splenocytes of peptide-inoculated mice [5]
lowest affinity	2 h	ALPTTISFT [Peptide P4]	98.80%	48.73%	30.79%	21.01%	18.52%	could not lyse	–	–
highest affinity	8 h	FLWGPRALA [Peptide P3]	285.66%	230.85%	192.71%	170.05%	150.56%	could significantly lyse	could also lyse	could lyse
did not increase	–	OVA257–264: control peptide, negative control in HLA-A*0201 binding test (ESIINFEK; UniProt P01012 257-264, looked up, fragment) [reference compound]	–	–	–	–	–	–	–	–

Continued, substance first:

Substance	Binding affinity for HLA-A*0201 molecule (increase of HLA-A*0201 expression on T2 cells) [1]	DC50 (half-time of the peptide/HLA-A*0201 complex) [2]	% MFI increase at indicated time point (h): 0 [2]	% MFI increase at indicated time point (h): 2 [2]	% MFI increase at indicated time point (h): 4 [2]	% MFI increase at indicated time point (h): 6 [2]	% MFI increase at indicated time point (h): 8 [2]	Lysis of LB1751-MEL target cells by peptide-stimulated PBMCs [3]	Lysis of MCF-7A4 cells (HLA-A*0201 and MAGE-A4 expressing) by peptide-primed effector cells [4]	Lysis of LB1751-MEL target cells by splenocytes of peptide-inoculated mice [5]
ALLEEEEGV [Peptide P2]	lower affinity	2 h	170.07%	84.13%	57.09%	42.34%	31.19%	could not lyse	–	–
KVLEHVVRV [Peptide P1]	lowest affinity	4 to 6 h	126.16%	95.74%	74.98%	60.29%	49.07%	could significantly lyse	could also lyse	could lyse
